{"source": "paper PMC11358443", "about": "“Polymodal K^+ channel modulation contributes to dual analgesic and anti-inflammatory actions of traditional botanical medicines” (Communications Biology, 2024)", "key": {"Kv7.5": {"target": "Kv7.5 (Homo sapiens, UniProt Q9NR82)", "sequence (Q9NR82 whole entry)": "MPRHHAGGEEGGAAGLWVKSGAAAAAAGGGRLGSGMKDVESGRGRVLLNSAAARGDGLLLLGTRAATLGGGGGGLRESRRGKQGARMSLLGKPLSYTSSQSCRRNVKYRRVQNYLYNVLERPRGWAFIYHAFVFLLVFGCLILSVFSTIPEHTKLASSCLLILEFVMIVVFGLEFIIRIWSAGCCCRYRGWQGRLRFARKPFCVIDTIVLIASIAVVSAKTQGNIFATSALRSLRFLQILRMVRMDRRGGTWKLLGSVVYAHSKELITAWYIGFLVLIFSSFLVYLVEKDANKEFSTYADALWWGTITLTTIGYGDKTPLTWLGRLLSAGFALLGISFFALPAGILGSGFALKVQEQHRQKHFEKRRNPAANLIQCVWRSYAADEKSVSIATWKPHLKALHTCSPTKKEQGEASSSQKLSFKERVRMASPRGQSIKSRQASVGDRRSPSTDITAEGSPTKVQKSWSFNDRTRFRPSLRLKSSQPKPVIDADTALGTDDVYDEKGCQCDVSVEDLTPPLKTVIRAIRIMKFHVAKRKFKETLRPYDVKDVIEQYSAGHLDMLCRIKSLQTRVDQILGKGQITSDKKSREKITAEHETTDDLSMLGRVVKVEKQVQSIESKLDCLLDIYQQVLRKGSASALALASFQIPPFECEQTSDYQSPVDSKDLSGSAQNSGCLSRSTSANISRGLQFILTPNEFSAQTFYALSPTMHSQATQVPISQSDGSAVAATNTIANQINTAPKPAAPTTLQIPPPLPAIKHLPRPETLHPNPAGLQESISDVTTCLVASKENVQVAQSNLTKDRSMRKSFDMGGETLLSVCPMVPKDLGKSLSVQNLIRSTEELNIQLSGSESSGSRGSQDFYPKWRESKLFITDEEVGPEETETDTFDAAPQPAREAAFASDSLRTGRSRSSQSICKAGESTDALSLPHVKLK", "parameters": "method as in PMID 35997997", "details": "100 µM; at −80 mV; cited from earlier work"}, "human Kv1.3": {"target": "human Kv1.3 (Homo sapiens, UniProt P22001)", "sequence (P22001 whole entry)": "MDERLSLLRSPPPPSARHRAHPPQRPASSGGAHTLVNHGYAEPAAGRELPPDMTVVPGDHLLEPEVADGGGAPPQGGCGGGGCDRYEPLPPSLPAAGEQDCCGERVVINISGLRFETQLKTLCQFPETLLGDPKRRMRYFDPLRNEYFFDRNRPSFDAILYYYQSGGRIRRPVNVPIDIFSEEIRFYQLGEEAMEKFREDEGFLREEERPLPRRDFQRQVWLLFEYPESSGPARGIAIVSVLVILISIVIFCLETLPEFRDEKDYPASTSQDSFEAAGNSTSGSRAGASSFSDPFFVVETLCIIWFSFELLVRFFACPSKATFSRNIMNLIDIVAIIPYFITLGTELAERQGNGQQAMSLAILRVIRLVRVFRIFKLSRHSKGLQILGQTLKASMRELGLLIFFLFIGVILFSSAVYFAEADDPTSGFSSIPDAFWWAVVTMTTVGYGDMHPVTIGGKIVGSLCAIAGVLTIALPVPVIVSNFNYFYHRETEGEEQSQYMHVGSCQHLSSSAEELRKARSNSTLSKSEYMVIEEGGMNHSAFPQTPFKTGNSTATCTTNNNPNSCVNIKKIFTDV", "experiment": "TEVC electrophysiology, Xenopus oocytes expressing Kv1.3", "type": "cell-based", "details": "for effect of 160 mM [K+]O on Kv1.3 inhibition: versus 4 mM [K+]O", "method": "(§1) We generated human potassium channel cRNA transcripts with the mMessage mMachine kit (Thermo Fisher Scientific, Waltham, MA, USA) according to manufacturer’s instructions, after vector linearization, from cDNA sub-cloned into expression vectors (pTLNx, pXOOM and pMAX). We injected Xenopus laevis oocytes (Xenoocyte, Dexter, MI, USA) with the channel cRNAs (0.5–10 ng) and incubated the oocytes at 16 °C for 1–4 days prior to electrophysiological recording.\n(§2) We performed TEVC at 20–23 °C with an OC-725C amplifier (Warner Instruments, Hamden, CT, USA) and pClamp10 software. Chemicals for recording and oocyte storage solutions were from Sigma-Aldrich (St. Louis, MO). Bath solution contained (in mM): 96 NaCl, 4 KCl, 1 MgCl2, 1 CaCl2, 10 HEPES (pH 7.6). Pipettes were 1–2 MΩ resistance when filled with 3 M KCl. We recorded currents in response to voltage pulses between −120 mV or −80 mV and +40 mV at 10 mV intervals from a holding potential of −80 mV, to yield current–voltage relationships and examine activation kinetics. We recorded and analyzed data using Clampfit (Molecular Devices, Sunnyvale, CA, USA) and Graphpad Prism software (GraphPad, San Diego, CA, USA), stating values as mean ± SEM. We calculated the voltage dependence of activation (V0.5) by measuring tail currents at a voltage pulse of −30 mV (Kv7) or −50 mV (Kv1), then fitted the tail current/voltage relationship with a single Boltzmann function:1 g=(A1−A2)/{1+exp[V1/2−V/Vs]}y+A2 where g is the normalized tail conductance, A1 is the initial value at −∞, A2 is the final value at +∞, V1/2 is the half-maximal voltage of activation and Vs the slope factor. We fitted activation and deactivation kinetics with single exponential functions.\n(§3) For wild-type and mutant Kv1.3 channels we calculated conductance–voltage curves from current–voltage relationships recorded in response to voltage pulses between −80 mV to +40 mV in 10 mV intervals from a holding potential of −80 mV. The conductance was calculated by subtracting the driving force (EK):2 Ek=xlnK^+i/K^+o"}, "Kv1.3 Mutant 3": {"target": "Kv1.3 Mutant 3 (Homo sapiens, UniProt P22001, H451V/V453T)", "sequence (P22001 whole entry H451V/V453T)": "as the sequence (P22001 whole entry) above, with H451V, V453T counted along it", "experiment": "TEVC electrophysiology, oocytes expressing Kv1.3 Mutant 3 (Kv1.2 selectivity filter-S6 linker residues)", "type": "cell-based", "source_text": "(§4) To test whether the predicted different binding poses of tannic acid to Kv1.2 and Kv1.3 could explain the contrasting functional effects on these two channels, we made three mutant forms of Kv1.3, introducing Kv1.2 residues into the Kv1.3 turret loop (Mutant 1), pore helix (Mutant 2) and selectivity filter-S6 linker (Mutant 3) (Fig. 9A, B). Mutant 2 was nonfunctional (Fig. 9C); the single residue in this mutant was inaccessible to tannic acid as it was deep inside the pore and was not predicted therefore to interact with tannic acid (Fig. 8).\nas §1, §2, §3"}, "Kv1.3 Mutant 1": {"target": "Kv1.3 Mutant 1 (Homo sapiens, UniProt P22001, D423E/G427Q/P424R/S429P/T425E)", "sequence (P22001 whole entry D423E/P424R/T425E/G427Q/S429P)": "as the sequence (P22001 whole entry) above, with D423E, P424R, T425E, G427Q, S429P counted along it", "experiment": "TEVC electrophysiology, oocytes expressing Kv1.3 Mutant 1 (Kv1.2 turret loop residues)", "type": "cell-based", "source_text": "as §4, §1, §2, §3"}, "[1]": {"target": "native Kv1.3 current in activated human T-cells (Homo sapiens, UniProt P22001)", "sequence (P22001 whole entry)": "as the sequence (P22001 whole entry) above", "experiment": "Patch-clamp of native Kv1.3 current in activated human T-cells", "type": "cell-based", "details": "approximation, underestimate of potency (saturation incomplete); read-out: IC50 for human T-cell Kv1.3 current", "quoted_text": "Human CD4+ T cells from frozen PBMCs ([sequence] Technologies) were isolated with EasySep negative isolation kit ([sequence] Technologies, cat. #17952) according to manufacturers’ protocols. After isolation cells were plated on anti-CD3 (BioLegend, clone OKT3, 2.5 μg/ml), anti-CD28 (BioLegend, clone CD28.2, 2.5 μg/ml)-coated 6-well plate dish at 1.5 × 10^6 cells/well in 3 ml RPMI medium (Gibco) supplemented with 10% FBS (Omega Scientific), 1% L-glutamine (Gibco), 1% non-essential amino acids (Gibco), 1% sodium pyruvate (Gibco), 1% penicillin–streptomycin–amphotericin B (Gibco) and 50 µM, β-mercaptoethanol (Sigma), 30 U/ml recombinant human IL-2 (BioLegend, cat. #589102). Cells were incubated during 48–144 h in 5% CO2 + 95% O2 atmosphere at 37 °C, harvested and plated on poly-lysine coated coverslips; 30–60 min later cells were used in the experiment.\nWe performed patch clamp experiments at 20–23 °C, acquiring data with an EPC9 patch clamp amplifier (HEKA), a 5 kHz sampling rate and digitally filtering at 1–2 kHz. […] The Kv1.3 currents were recorded in response to 600 ms step pulse from holding potential −80 mV to +40 mV acquired every 30 s. […] The recorded currents were analyzed with Patch Master (HEKA Electronics) and Origin Pro (Origin Lab)."}}, "data": [{"substance": "tannic acid", "values": [{"measurement": "constitutive activation for Kv7.5", "setting": "Kv7.5", "result": 50, "unit": "%"}, {"measurement": "Current at 0 (mV)", "setting": "human Kv1.3; 0.1 µM tannic acid, control 1.99 ± 0.28", "result": "2.39 ± 0.41"}, {"measurement": "Slope", "setting": "human Kv1.3; 0.1 µM tannic acid, control 4.86 ± 0.31", "result": "4.70 ± 0.45", "unit": "mV"}, {"measurement": "V0.5 Normalized tail current", "setting": "human Kv1.3; 0.1 µM tannic acid, control -27.75 ± 1.03", "result": "-27.80 ± 2.36", "unit": "mV"}, {"measurement": "Current at 0 (mV)", "setting": "human Kv1.3; 1 µM tannic acid", "result": "2.23 ± 0.35"}, {"measurement": "Slope", "setting": "human Kv1.3; 1 µM tannic acid", "result": "4.73 ± 0.52", "unit": "mV"}, {"measurement": "V0.5 Normalized tail current", "setting": "human Kv1.3; 1 µM tannic acid", "result": "-28.17 ± 3.08", "unit": "mV"}, {"measurement": "Current at 0 (mV)", "setting": "human Kv1.3; 3 µM tannic acid", "result": "1.96 ± 0.31"}, {"measurement": "Slope", "setting": "human Kv1.3; 3 µM tannic acid", "result": "5.21 ± 0.43", "unit": "mV"}, {"measurement": "V0.5 Normalized tail current", "setting": "human Kv1.3; 3 µM tannic acid", "result": "-28.73 ± 3.31", "unit": "mV"}, {"measurement": "Current at 0 (mV)", "setting": "human Kv1.3; 10 µM tannic acid", "result": "1.09 ± 0.25"}, {"measurement": "Slope", "setting": "human Kv1.3; 10 µM tannic acid", "result": "7.44 ± 0.95", "unit": "mV"}, {"measurement": "V0.5 Normalized tail current", "setting": "human Kv1.3; 10 µM tannic acid", "result": "-25.49 ± 4.06", "unit": "mV"}, {"measurement": "Current at 0 (mV)", "setting": "human Kv1.3; 30 µM tannic acid", "result": "0.72 ± 0.27"}, {"measurement": "Slope", "setting": "human Kv1.3; 30 µM tannic acid", "result": "10.91 ± 2.27", "unit": "mV"}, {"measurement": "V0.5 Normalized tail current", "setting": "human Kv1.3; 30 µM tannic acid", "result": "-19.06 ± 4.68", "unit": "mV"}, {"measurement": "time to steady-state block", "setting": "human Kv1.3; 30 µM tannic acid, 2 s depolarizing pulses every 60 s (6 pulses)", "result": 300, "unit": "ms"}, {"measurement": "time to steady-state block", "setting": "human Kv1.3; 30 µM tannic acid, 200-ms depolarizing pulses every 60 s (13 pulses)", "result": 700, "unit": "ms"}, {"measurement": "effect of 160 mM [K+]O on Kv1.3 inhibition", "setting": "human Kv1.3; 30 µM tannic acid", "result": "abolished inhibition"}, {"measurement": "Current at 0 (mV)", "setting": "human Kv1.3; 100 µM tannic acid", "result": "0.32 ± 0.08"}, {"measurement": "Slope", "setting": "human Kv1.3; 100 µM tannic acid", "result": "15.18 ± 2.02", "unit": "mV"}, {"measurement": "V0.5 Normalized tail current", "setting": "human Kv1.3; 100 µM tannic acid", "result": "-9.91 ± 3.45", "unit": "mV"}, {"measurement": "effect of 160 mM [K+]O on Kv1.3 inhibition", "setting": "human Kv1.3; 100 µM tannic acid", "result": "significantly reduced the efficacy"}, {"measurement": "IC50", "setting": "human Kv1.3; prepulse current, read-out: IC50 for Kv1.3 inhibition in oocytes", "result": "12 ± 1.3", "unit": "µM"}, {"measurement": "concentrations that depolarized the EM of oocytes expressing Kv1.3", "setting": "human Kv1.3; unclamped oocytes", "result": "above 10 µM"}, {"measurement": "Slope", "setting": "Kv1.3 Mutant 3; 0.1 µM tannic acid, control 2.50 ± 0.70", "result": "4.01 ± 0.35", "unit": "mV"}, {"measurement": "Current at 0 (mV)", "setting": "Kv1.3 Mutant 3; 0.1 µM tannic acid, control 3.39 ± 0.48", "result": "4.20 ± 0.53"}, {"measurement": "V0.5 Normalized tail current", "setting": "Kv1.3 Mutant 3; 0.1 µM tannic acid, control -31.00 ± 0.53", "result": "-30.20 ± 0.78", "unit": "mV"}, {"measurement": "Current at 0 (mV)", "setting": "Kv1.3 Mutant 3; 1 µM tannic acid", "result": "4.44 ± 0.64"}, {"measurement": "Slope", "setting": "Kv1.3 Mutant 3; 1 µM tannic acid", "result": "3.67 ± 0.41", "unit": "mV"}, {"measurement": "V0.5 Normalized tail current", "setting": "Kv1.3 Mutant 3; 1 µM tannic acid", "result": "-30.51 ± 0.97", "unit": "mV"}, {"measurement": "Current at 0 (mV)", "setting": "Kv1.3 Mutant 3; 3 µM tannic acid", "result": "4.25 ± 0.64"}, {"measurement": "Slope", "setting": "Kv1.3 Mutant 3; 3 µM tannic acid", "result": "4.85 ± 0.24", "unit": "mV"}, {"measurement": "V0.5 Normalized tail current", "setting": "Kv1.3 Mutant 3; 3 µM tannic acid", "result": "-30.85 ± 1.34", "unit": "mV"}, {"measurement": "Current at 0 (mV)", "setting": "Kv1.3 Mutant 3; 10 µM tannic acid", "result": "2.28 ± 0.38"}, {"measurement": "Slope", "setting": "Kv1.3 Mutant 3; 10 µM tannic acid", "result": "6.40 ± 0.62", "unit": "mV"}, {"measurement": "V0.5 Normalized tail current", "setting": "Kv1.3 Mutant 3; 10 µM tannic acid", "result": "-29.05 ± 1.94", "unit": "mV"}, {"measurement": "Current at 0 (mV)", "setting": "Kv1.3 Mutant 3; 30 µM tannic acid", "result": "0.88 ± 0.13"}, {"measurement": "Slope", "setting": "Kv1.3 Mutant 3; 30 µM tannic acid", "result": "14.11 ± 1.75", "unit": "mV"}, {"measurement": "V0.5 Normalized tail current", "setting": "Kv1.3 Mutant 3; 30 µM tannic acid", "result": "-16.81 ± 5.40", "unit": "mV"}, {"measurement": "Current at 0 (mV)", "setting": "Kv1.3 Mutant 3; 100 µM tannic acid", "result": "0.50 ± 0.07"}, {"measurement": "change of tannic acid IC50 versus wild-type Kv1.3", "setting": "Kv1.3 Mutant 3; inhibition dose response", "result": "did not alter"}, {"measurement": "Slope", "setting": "Kv1.3 Mutant 1; 0.1 µM tannic acid, control 3.97 ± 0.40", "result": "5.16 ± 0.56", "unit": "mV"}, {"measurement": "Current at 0 (mV)", "setting": "Kv1.3 Mutant 1; 0.1 µM tannic acid, control 4.66 ± 1.27", "result": "5.24 ± 0.91"}, {"measurement": "V0.5 Normalized tail current", "setting": "Kv1.3 Mutant 1; 0.1 µM tannic acid, control -14.75 ± 3.06", "result": "-20.05 ± 2.13", "unit": "mV"}, {"measurement": "Current at 0 (mV)", "setting": "Kv1.3 Mutant 1; 1 µM tannic acid", "result": "5.37 ± 0.63"}, {"measurement": "Slope", "setting": "Kv1.3 Mutant 1; 1 µM tannic acid", "result": "4.97 ± 0.53", "unit": "mV"}, {"measurement": "V0.5 Normalized tail current", "setting": "Kv1.3 Mutant 1; 1 µM tannic acid", "result": "-24.05 ± 2.18", "unit": "mV"}, {"measurement": "Current at 0 (mV)", "setting": "Kv1.3 Mutant 1; 3 µM tannic acid", "result": "4.93 ± 0.57"}, {"measurement": "Slope", "setting": "Kv1.3 Mutant 1; 3 µM tannic acid", "result": "5.05 ± 0.28", "unit": "mV"}, {"measurement": "V0.5 Normalized tail current", "setting": "Kv1.3 Mutant 1; 3 µM tannic acid", "result": "-27.01 ± 1.83", "unit": "mV"}, {"measurement": "Current at 0 (mV)", "setting": "Kv1.3 Mutant 1; 10 µM tannic acid", "result": "4.01 ± 0.41"}, {"measurement": "Slope", "setting": "Kv1.3 Mutant 1; 10 µM tannic acid", "result": "5.33 ± 0.20", "unit": "mV"}, {"measurement": "V0.5 Normalized tail current", "setting": "Kv1.3 Mutant 1; 10 µM tannic acid", "result": "-27.63 ± 1.98", "unit": "mV"}, {"measurement": "Current at 0 (mV)", "setting": "Kv1.3 Mutant 1; 30 µM tannic acid", "result": "2.18 ± 0.24"}, {"measurement": "Slope", "setting": "Kv1.3 Mutant 1; 30 µM tannic acid", "result": "5.94 ± 0.30", "unit": "mV"}, {"measurement": "V0.5 Normalized tail current", "setting": "Kv1.3 Mutant 1; 30 µM tannic acid", "result": "-24.82 ± 2.70", "unit": "mV"}, {"measurement": "Current at 0 (mV)", "setting": "Kv1.3 Mutant 1; 100 µM tannic acid", "result": "1.15 ± 0.14"}, {"measurement": "Slope", "setting": "Kv1.3 Mutant 1; 100 µM tannic acid", "result": "6.41 ± 0.42", "unit": "mV"}, {"measurement": "V0.5 Normalized tail current", "setting": "Kv1.3 Mutant 1; 100 µM tannic acid", "result": "-19.79 ± 4.83", "unit": "mV"}, {"measurement": "reduction of tannic acid sensitivity versus wild-type Kv1.3", "setting": "Kv1.3 Mutant 1; inhibition dose response", "result": "threefold"}, {"measurement": "IC50", "setting": "[1]", "result": "3.3 ± 0.2", "unit": "µM"}]}]}
